Laboratory results taken from PMC6516660, “Construction of a pathway to C50-ε-carotene” (PLoS ONE, 2019).
Where a chain is given by its changes, count along the chain named.

Experiments:
Assay in all cases: carotenoid production in E. coli, HPLC-PDA-MS
Format in all cases: cell-based
[1] = molecular target: T1, AtE (At-y2) (Arabidopsis thaliana, UniProt Q38932)
T1 construct: gene LUT2; full-length (transit peptide kept), pUCara plasmid, expressed in E. coli XL1-Blue with carotenoid pathway enzymes
T1 sequence (Q38932 1-524): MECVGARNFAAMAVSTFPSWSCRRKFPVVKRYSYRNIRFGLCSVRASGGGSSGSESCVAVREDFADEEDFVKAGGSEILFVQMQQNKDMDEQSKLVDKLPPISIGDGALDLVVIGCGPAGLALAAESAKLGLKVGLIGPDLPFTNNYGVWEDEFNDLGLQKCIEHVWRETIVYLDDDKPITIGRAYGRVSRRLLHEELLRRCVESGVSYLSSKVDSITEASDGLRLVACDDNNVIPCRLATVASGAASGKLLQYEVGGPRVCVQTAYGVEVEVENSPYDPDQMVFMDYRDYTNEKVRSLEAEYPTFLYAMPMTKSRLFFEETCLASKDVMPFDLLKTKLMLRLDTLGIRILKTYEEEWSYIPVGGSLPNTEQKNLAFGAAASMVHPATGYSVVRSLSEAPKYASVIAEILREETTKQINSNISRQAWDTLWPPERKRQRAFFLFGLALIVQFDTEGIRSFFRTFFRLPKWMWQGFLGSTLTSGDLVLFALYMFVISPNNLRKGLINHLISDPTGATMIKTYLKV

[2] = molecular target: T2, LsE (Lactuca sativa, UniProt Q9AXK7); settings: E. coli making C40-lycopene; product ε,ε-carotene
T2 construct: pUCara plasmid, expressed in E. coli XL1-Blue with carotenoid pathway enzymes
T2 sequence (Q9AXK7 1-533 limits assumed): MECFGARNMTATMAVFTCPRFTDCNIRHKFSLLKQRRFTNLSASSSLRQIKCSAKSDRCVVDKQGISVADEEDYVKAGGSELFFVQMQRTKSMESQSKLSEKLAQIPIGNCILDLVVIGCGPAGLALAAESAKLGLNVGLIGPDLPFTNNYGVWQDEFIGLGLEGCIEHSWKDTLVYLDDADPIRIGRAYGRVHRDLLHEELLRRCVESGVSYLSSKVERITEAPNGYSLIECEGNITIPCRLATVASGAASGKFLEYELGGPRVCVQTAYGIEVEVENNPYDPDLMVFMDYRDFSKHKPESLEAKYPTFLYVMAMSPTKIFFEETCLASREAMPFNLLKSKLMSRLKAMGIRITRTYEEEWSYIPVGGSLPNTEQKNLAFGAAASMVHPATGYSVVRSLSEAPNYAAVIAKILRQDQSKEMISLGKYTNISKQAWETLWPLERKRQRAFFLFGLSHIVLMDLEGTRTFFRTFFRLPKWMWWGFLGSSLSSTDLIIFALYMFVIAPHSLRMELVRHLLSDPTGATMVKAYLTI

[3] = molecular target: T3, AtE (At-y2) (Arabidopsis thaliana, UniProt Q38932, L448H); settings: E. coli making C40-lycopene
T3 construct: gene LUT2; full-length (transit peptide kept), pUCara plasmid, expressed in E. coli XL1-Blue with carotenoid pathway enzymes
T3 sequence (Q38932 1-524 L448H): T1 sequence (Q38932 1-524) with L448H

SMILES	carotenoid production in E. coli, HPLC-PDA-MS ([1]; E. coli making C50-lycopene, TB medium, L-arabinose induction, product C50-ε,ε-carotene)	carotenoid production in E. coli, HPLC-PDA-MS ([1]; E. coli making C40-lycopene, product δ-carotene (ε,ψ-carotene))	carotenoid production in E. coli, HPLC-PDA-MS [2]	carotenoid production in E. coli, HPLC-PDA-MS [3]
CC(C)=CCC/C(C)=C/C=C/C(C)=C/C=C/C(C)=C/C=C/C(C)=C/C=C/C=C(C)/C=C/C=C(C)/C=C/C=C(C)/C=C/C=C(\C)CCC=C(C)C [C50-lycopene]	AtE cyclized both ends of the C50-lyopene (Fig 2C)	–	–	–
CC(C)=CCC/C(C)=C/C=C/C(C)=C/C=C/C(C)=C/C=C/C=C(C)/C=C/C=C(C)/C=C/C=C(\C)CCC=C(C)C [C40-lycopene]	–	this enzyme fully consumed its natural substrate C40-lycopene and yielded ε, ψ-carotene	LsE could equally and efficiently act on both sides of C40-lycopene (Fig 3B)	very subtle effect (if not none) of L448H also in the natural C40 pathway
